Assay results: PMC10655131 (Journal of medicinal chemistry, 2021)

What was measured:
recombinant HIV-1 RT [1] = details: read-out: IC50 (Anti-HIV RT enzyme inhibition activity); mean ± SD, n = 3; cited from earlier work
HIV-1HXB2 = assay type: cell-based; details: antiviral EC50 relative to best inhibitor (NBD-14189)
recombinant HIV-1 RT [2] = assay: colorimetric Reverse Transcriptase Assay; assay type: biochemical
TZM-bl cells = details: read-out: CC50 (cytotoxicity), XTT, three days; cited from earlier work

Structure (SMILES): CC1(C)CC(NC(=O)C(=O)Nc2ccc(Cl)cc2)CC(C)(C)N1 [NBD-556]
- IC50 (recombinant HIV-1 RT [1]): > 200 µM

Structure (SMILES): NC[C@H](NC(=O)c1ccc(-c2ccc(C(F)(F)F)cc2)[nH]1)c1nc(CO)cs1 [NBD-14189]
- Fold-change from best inhibitor (EC50) (HIV-1HXB2): 1
- Fold-change from best inhibitor (IC50) (recombinant HIV-1 RT [2]; RT IC50 relative to best inhibitor (NBD-14189)): 1

Structure (SMILES): NC[C@@H](NC(=O)c1ccc(-c2ccc(Cl)c(F)c2)[nH]1)c1ncc(CO)s1 [NBD-14075]
- increase in the IC50 value (recombinant HIV-1 RT [2]; 075 vs. 189 and 270): ~ 10 fold

Structure (SMILES): NC[C@@H](NC(=O)c1ccc(-c2ccc(C(F)(F)F)cn2)[nH]1)c1ncc(C(O)CO)s1 (some centres unmarked) [NBD-14306]
- CC50 (TZM-bl cells): > 113 µM
